Laboratory results as given in ChEMBL document CHEMBL1201862, “PubChem BioAssay data set” (2004).
The source made the active and inactive calls.

Assays:
[1] = tested on: Streptococcus; test: Group A Streptococcus viability loss, dose response, counter-screen for streptokinase expression inhibitor project, luminescence, BacTiterGlo (AID 1915); format: functional, organism-based;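 also: potency for reduction of bacterial viability or growth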
[2] = C. albicans growth with fluconazole, confirmation, fluorescence, retest (AID 2467); format: functional, cell-based
[3] = tested on: Vero; test: cells; format: functional; details: Chlorocebus sabaeus
[4] = tested on: Streptococcus sp. 'group A'; test: growth inhibition of control SK(-) GAS strain, dose response, counter-screen for streptokinase expression inhibitor project, luminescence, kanamycin, BacTiterGlo, confirmation (AID 1900); format: functional, organism-based
[5] = NIH-3T3 fibroblast cytotoxicity, dose response, cytotoxicity control, cell-based, fluorescence, Alamar Blue, secondary assay (AID 2327); format: functional;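 also: NIH-3T3 mouse fibroblasts cultured with fluconazole at 8 µg/mL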
[6] = biological target: T1, Short transient receptor potential channel 4 (Mus musculus, UniProt Q9QUQ5); test: mouse TRPC4 channel inhibitors, dose response, cell-based, HEK293 TRPC4/mu-opioid, Fluo-4 calcium (AID 434942); format: functional;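 also: potency of inhibitors blocking the TRPC4 calcium response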
T1 sequence (Q9QUQ5 whole entry): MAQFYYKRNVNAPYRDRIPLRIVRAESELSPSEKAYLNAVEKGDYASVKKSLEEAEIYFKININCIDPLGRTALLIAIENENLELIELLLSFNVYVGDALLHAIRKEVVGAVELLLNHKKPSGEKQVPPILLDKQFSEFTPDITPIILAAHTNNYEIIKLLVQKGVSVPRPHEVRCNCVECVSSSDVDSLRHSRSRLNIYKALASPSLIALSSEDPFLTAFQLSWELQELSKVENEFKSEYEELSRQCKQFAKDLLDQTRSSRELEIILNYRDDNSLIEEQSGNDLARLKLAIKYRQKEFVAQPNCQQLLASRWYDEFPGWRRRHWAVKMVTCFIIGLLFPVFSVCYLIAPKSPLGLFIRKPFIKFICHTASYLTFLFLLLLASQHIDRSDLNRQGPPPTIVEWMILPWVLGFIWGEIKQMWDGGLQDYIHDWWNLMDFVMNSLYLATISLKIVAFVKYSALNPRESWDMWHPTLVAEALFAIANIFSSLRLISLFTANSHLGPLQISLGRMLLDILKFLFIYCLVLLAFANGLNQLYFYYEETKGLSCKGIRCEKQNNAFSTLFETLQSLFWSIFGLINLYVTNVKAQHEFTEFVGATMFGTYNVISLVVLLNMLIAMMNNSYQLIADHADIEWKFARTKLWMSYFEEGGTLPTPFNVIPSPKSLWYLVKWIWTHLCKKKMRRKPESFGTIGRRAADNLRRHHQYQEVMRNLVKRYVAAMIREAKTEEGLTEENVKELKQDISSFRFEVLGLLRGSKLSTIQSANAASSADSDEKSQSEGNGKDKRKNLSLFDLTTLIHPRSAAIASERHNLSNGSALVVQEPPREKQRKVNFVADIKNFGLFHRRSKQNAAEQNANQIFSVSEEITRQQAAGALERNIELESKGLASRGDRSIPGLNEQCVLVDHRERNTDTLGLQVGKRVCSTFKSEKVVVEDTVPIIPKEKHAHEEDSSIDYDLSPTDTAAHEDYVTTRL

[7] = cells; format: functional, cell-based
[8] = cells; format: functional, cell-based; remark: listed apart in the source
[9] = biological target: T2, Heat shock factor protein 1 (Mus musculus, UniProt P38532); test: HSF1 potentiators in luciferase reporter cells, confirmation, cell-based, NIH3T3, luminescence, dose retest (AID 435004); format: functional;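 also: stress induced by proteasome inhibitor MG132 added 30 min after compound; luciferase reporter driven by HSF1 response element in NIH3T3 cells; actives raise luminescence as potentiators of the MG132 stress response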
T2 sequence (P38532 whole entry): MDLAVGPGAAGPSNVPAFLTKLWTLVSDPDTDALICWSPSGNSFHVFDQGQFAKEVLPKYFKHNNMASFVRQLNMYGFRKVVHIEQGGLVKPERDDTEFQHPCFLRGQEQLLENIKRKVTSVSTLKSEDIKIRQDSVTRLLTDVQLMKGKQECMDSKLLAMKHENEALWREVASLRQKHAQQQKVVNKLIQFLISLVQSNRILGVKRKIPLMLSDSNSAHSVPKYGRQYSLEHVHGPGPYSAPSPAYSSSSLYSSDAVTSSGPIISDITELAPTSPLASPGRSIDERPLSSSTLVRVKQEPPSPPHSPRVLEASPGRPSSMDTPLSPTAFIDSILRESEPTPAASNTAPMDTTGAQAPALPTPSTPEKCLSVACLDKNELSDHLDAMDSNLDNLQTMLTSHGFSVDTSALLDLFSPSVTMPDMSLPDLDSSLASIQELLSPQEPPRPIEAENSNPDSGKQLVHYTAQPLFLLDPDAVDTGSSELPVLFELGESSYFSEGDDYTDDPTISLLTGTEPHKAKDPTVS

[10] = biological target: Cytochrome P450 2D6 (Homo sapiens, UniProt P10635);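 also: CYP2D6 member of a cytochrome P450 panel assay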
Chain of Cytochrome P450 2D6 (P10635 whole entry): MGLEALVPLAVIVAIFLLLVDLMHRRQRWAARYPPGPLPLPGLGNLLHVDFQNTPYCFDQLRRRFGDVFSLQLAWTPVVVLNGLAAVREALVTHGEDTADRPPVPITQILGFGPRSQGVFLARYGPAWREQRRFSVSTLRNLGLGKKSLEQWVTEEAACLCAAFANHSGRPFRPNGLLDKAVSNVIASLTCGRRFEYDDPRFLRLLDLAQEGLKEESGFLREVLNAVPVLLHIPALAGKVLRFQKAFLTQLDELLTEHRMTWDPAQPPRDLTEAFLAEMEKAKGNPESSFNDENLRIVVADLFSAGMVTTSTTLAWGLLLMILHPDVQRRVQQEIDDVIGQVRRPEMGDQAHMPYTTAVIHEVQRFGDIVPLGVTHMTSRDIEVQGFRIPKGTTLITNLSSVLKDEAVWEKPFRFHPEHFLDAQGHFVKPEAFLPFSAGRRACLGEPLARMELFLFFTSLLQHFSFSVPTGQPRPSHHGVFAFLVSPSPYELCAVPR

[11] = biological target: Cytochrome P450 2C9 (Homo sapiens, UniProt P11712)
Chain of Cytochrome P450 2C9 (P11712 whole entry): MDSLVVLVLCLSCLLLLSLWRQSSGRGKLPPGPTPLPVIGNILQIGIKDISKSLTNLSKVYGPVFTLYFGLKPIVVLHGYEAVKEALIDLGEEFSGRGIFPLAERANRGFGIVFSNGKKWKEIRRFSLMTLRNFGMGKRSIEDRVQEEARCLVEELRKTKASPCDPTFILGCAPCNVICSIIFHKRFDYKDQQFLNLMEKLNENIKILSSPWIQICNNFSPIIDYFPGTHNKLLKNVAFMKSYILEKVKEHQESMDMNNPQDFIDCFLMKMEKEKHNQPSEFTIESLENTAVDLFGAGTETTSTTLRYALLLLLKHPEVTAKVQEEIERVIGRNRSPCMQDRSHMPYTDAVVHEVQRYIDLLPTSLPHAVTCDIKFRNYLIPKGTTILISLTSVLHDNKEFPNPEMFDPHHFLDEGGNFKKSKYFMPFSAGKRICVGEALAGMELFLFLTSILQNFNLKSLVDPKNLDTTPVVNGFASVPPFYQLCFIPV

[12] = biological target: T3, Streptokinase A (Streptococcus pyogenes serotype M1, UniProt P10520); test: S. pyogenes streptokinase expression inhibitors, potency, dose response, plasminogen activation absorbance, OD405 (AID 1914); format: functional, Streptococcus pyogenes M1 GAS;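 also: secreted streptokinase activity via plasminogen activation per viability signal from cell pellet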
T3 sequence (P10520 whole entry): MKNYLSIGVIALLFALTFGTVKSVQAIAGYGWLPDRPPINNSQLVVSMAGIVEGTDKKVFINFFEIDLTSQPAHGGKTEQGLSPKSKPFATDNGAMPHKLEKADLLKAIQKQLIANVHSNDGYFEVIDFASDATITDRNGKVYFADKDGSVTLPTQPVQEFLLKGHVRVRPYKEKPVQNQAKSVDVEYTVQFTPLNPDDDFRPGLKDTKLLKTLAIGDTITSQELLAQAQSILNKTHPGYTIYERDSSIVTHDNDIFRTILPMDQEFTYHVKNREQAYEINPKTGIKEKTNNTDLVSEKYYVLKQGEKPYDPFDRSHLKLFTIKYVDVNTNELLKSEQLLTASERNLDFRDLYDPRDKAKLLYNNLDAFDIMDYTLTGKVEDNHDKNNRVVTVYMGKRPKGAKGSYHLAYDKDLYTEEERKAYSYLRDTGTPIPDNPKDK

[13] = tested on: INS1; test: beta cell apoptosis inhibitors, cytokine rescue, dose response, luminescence, retest (AID 449756); format: functional, cell-based; details: Rattus norvegicus;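 also: cell death triggered by IL-1 beta plus TNF-alpha plus IFN-gamma mixture; protective hits raise ATP signal compared with cytokine alone wells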
[14] = control 3'UTR Renilla luciferase suppression, dose response, counter-screen for Shn3 inhibitor project, cell-based, Clone20-Shn3RL, cherry-picked (AID 624133); format: functional
[15] = Shn3 3'UTR reporter inhibitors, dose response, cell-based, Clone20 osteoblasts, firefly luciferase, cherry-picked (AID 624132); format: functional;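 also: firefly luciferase luminescence from reporter carrying the Shn3 3'UTR in osteoblasts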
[16] = biological target: T4, Ubiquitin-conjugating enzyme E2 N (Homo sapiens, UniProt P61088); format: functional;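 also: Dose-response confirmation in a TR-FRET assay detecting UBC13-driven polyubiquitin chain formation, inhibition measured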
T4 sequence (P61088 whole entry): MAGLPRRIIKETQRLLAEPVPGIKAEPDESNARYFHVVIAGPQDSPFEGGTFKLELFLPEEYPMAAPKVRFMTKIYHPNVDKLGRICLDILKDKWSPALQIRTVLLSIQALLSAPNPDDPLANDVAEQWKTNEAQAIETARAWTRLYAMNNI

[17] = Luminescence Cell-Based Dose Retest to Confirm Inhibitors of Cancer Stem Cells. [Related pubchem assays (depositor defined):AID2717, AID2721]; format: functional; details: Homo sapiens
[18] = biological target: T5, Protein skinhead-1 (Caenorhabditis elegans, UniProt P34707); format: functional
T5 sequence (P34707 whole entry): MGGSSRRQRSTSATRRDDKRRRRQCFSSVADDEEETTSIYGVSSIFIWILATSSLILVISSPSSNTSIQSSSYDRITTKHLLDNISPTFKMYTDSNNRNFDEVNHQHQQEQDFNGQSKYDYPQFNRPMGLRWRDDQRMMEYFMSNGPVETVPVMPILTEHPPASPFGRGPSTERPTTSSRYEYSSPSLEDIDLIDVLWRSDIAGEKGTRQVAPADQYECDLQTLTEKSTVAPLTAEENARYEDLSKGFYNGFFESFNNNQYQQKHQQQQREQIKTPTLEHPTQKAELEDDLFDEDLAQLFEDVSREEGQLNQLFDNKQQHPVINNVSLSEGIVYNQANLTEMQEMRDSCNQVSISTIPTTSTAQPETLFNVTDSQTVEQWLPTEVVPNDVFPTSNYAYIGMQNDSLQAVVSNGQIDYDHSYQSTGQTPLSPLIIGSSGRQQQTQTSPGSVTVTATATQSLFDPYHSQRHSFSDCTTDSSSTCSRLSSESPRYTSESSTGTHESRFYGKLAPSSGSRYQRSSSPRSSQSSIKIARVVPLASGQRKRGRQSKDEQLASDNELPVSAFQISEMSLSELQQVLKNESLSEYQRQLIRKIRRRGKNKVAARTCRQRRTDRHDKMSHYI

[19] = cells; format: functional
[20] = Vero E6 cell cytotoxicity, dose response, cytotoxicity control for non-replicating M. tuberculosis project, secondary assay (AID 492998); format: functional, VeroE6; details: Vero C1008
[21] = biological target: FAD-linked sulfhydryl oxidase ALR (Homo sapiens, UniProt P55789); test: inhibitors of human ALR sulfhydryl oxidase, dose response, biochemical, H2O2 detection, luminescence, cherry-pick (AID 493248)
Chain of FAD-linked sulfhydryl oxidase ALR (P55789 whole entry): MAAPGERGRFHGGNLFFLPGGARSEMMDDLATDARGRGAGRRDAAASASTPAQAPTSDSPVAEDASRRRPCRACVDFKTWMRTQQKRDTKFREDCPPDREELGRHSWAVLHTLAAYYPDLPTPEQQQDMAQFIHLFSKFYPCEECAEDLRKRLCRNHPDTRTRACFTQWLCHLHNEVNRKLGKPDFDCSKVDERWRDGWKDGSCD

[22] = biological target: T6, Rac GTPase-activating protein 1 (Homo sapiens, UniProt Q9H0H5); test: MgcRacGAP GTPase-activating activity inhibitors, confirmation, biochemical, ADP Hunter fluorescence, primary and confirmatory (AID 624330); format: functional
T6 sequence (Q9H0H5 whole entry): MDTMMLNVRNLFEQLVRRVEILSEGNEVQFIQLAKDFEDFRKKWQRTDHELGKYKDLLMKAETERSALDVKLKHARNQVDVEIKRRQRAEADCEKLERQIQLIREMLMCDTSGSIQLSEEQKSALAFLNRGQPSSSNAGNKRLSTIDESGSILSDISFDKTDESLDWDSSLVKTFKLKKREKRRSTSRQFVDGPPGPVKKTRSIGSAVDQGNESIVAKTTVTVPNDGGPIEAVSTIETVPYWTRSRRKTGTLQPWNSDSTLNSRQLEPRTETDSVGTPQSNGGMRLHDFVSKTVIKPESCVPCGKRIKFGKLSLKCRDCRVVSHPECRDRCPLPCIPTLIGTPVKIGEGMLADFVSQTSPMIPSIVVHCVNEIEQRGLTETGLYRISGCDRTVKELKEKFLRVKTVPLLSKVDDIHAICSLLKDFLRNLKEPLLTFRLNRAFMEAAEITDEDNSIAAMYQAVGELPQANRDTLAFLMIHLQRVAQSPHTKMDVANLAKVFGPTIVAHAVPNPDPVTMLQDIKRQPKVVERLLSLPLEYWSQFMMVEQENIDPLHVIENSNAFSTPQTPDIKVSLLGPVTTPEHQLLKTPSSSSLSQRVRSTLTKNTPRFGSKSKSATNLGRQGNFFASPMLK

COc1ccc(C(=O)NC(=S)NNC(=O)c2ccccc2C)cc1
EC50 [1]: 2.83 µM (active)
EC50 [2]: 1.69 µM (active)
CC50 [3]: > 25 µM (active)
EC50 [4]: 1.31 µM (active)
EC50 [5]: > 150 µM (inconclusive)

CCn1c(NCc2c[nH]c3ccccc23)nc2ccccc21
EC50 [6]: 3.35 µM (active)

COC(=O)[C@H](CCSC)NC(=O)c1cccnc1SC
EC50 [7]: > 350 µM (not active)
EC50 [8]: > 350 µM (not active)

O=c1c2ccccc2sc2nc(C3CCCCC3)n(Cc3ccco3)c(=O)c12
EC50 [9]: 47.8 µM (active)

CC(=O)/N=c1\sccn1CC(=O)c1ccc([N+](=O)[O-])cc1
AC50 [10]: 14.1 µM (inconclusive)
AC50 [11]: 0.0794 µM (inconclusive)
EC50 [9]: > 260 µM (inactive)

CCCCCCCCCCCC(=O)c1c(O)cccc1O
EC50 [12]: > 150 µM (not active)
EC50 [1]: 7.15 µM (active)
EC50 [9]: 60.1 µM (active)
EC50 [4]: 1.53 µM (active)

CCS(=O)(=O)c1ncc(Cl)c(C(=O)Nc2ccccc2OC)n1
AC50 [13]: 38.9 µM (active)
EC50 [9]: 8.04 µM (active)
AC50 [14]: 4.81 µM (active)
AC50 [15]: 3.71 µM (active)

Cc1cn(Cc2ccccc2Cn2cc(C)c(=O)[nH]c2=O)c(=O)[nH]c1=O
EC50 [9]: > 260 µM (inactive)

Cc1ccc(C)c(N2CCN(CCCNC(=O)CCC(=O)N3CCOc4ccc(Cl)cc43)CC2)c1
IC50 [16]: > 20 µM (inactive)

Cc1cccc(C(=O)Nc2sc(-c3ccccc3)cc2C(=O)O)c1
EC50 [6]: 2.11 µM (active)

CN=C(S)N1CCN(C(c2ccccc2)c2ccccc2)CC1
EC50 [6]: 8.41 µM (active)

CC(=O)Nc1ccc2nc(NC(=O)COc3ccccc3C)sc2c1
EC50 [7]: > 350 µM (not active)
EC50 [8]: > 350 µM (not active)

C=CC[C@@H]1Cc2c(Br)ccc(Br)c2[C@@H](CC=C)N1
EC50 [9]: > 260 µM (inactive)

CCC(C)[C@H](Nc1nc(-c2ccccc2)nc2c1oc1ccccc12)C(=O)O (stereo partly specified)
EC50 [6]: 7.5 µM (active)

COc1cc(N/N=C(\C)c2ccc(O)c(C)c2)nc(-c2ccccc2)n1
AC50 [17]: 3.99 µM (active)
CC50 [3]: > 25 µM (active)

CCOC(=O)COn1c(-c2cccc(Cl)c2)nc2ccc([N+](=O)[O-])cc21
IC50 [18]: > 100 µM (inactive)
IC50 [19]: 28.9 µM (active)
CC50 [20]: > 20 µM (active)

Cc1ccc(CNC(=O)[C@H](C)N2C(=O)N3CCc4c([nH]c5ccccc45)[C@@]3(C)C2=O)cc1
EC50 [9]: > 260 µM (inactive)

COC(=O)c1ccc2c(=O)n(Cc3ccc(C(=O)NCCCN4CCC(C)CC4)cc3)c(=S)[nH]c2c1
CC50 [3]: 20.9 µM (active)

Nc1cc(C(F)(F)F)ccc1Nc1ccccc1
AC50 [21]: 14.6 µM (active)
EC50 [6]: 4.22 µM (active)

COc1ccc(/C=C/C(=O)Oc2cc(O)cc(O)c2)cc1
EC50 [6]: 3.76 µM (active)

COC(=O)c1cc(S(=O)(=O)C(C)C)c([S+](C)[O-])s1 (stereo unspecified)
EC50 [9]: 93.8 µM (active)

C=CCSc1cc(C)nc2c(-c3ccccc3)cnn12
EC50 [7]: > 350 µM (not active)
EC50 [8]: 26.8 µM (active)

COc1ccc(CN2CCN(Cc3ccccc3F)CC2)c(OC)c1
EC50 [6]: 4.22 µM (active)
IC50 [22]: 70.3 µM (active)

Clc1ccccc1CSc1nc2cc[nH]cc-2n1
EC50 [6]: 2.99 µM (active)

O=C(Cc1ccc(S(=O)(=O)N2CCOCC2)s1)Nc1ccc(S(=O)(=O)N2CCCCC2)cc1
EC50 [7]: > 350 µM (not active)
EC50 [8]: > 350 µM (not active)
